For orientation: pIC50 means −log10 of the IC50, conventionally taken in molar units. Usually pEC50 stands for −log10 of the EC50, conventionally taken in molar units.

From patent US8703811B2, “Small molecule inhibitors of Plasmodium falciparum dihydroorotate dehydrogenase” (Genzyme Corporation, priority 2008, dated 2014) come the findings set out here.

pEC50, pIC50: −log10 of the molar value. Like-named read-outs stand apart in the source and are kept apart here.

Experiment [1] has as its system P. falciparum HB3. The experiment in a line: Inhibition of in vitro P. falciparum culture, [3H]-hypoxanthine uptake, HB3. The format is cell-based. As to conditions: Plasmodium falciparum, HB3, Erythrocyte, read-out: HB3 IC50. On the procedure: (§1) P. falciparum strains D10, 3D7, HB3, and Dd2 were obtained from the Malaria Research and Reference Reagent Resource Center (Manassas, Va.). The parasite strains were maintained in vitro by method of Trager and Jensen. The inhibition of P. falciparum growth in the presence of drug was assessed by the relative reduction of [^3H]-hypoxanthine uptake as previously described. Inhibition data were fitted to Equation 1 using non-linear regression analysis except that the relative velocity of parasite growth was substituted for the rate of product formation.

The test system of experiment [2] is P. falciparum 3D7. Nature of the experiment: Inhibition of in vitro P. falciparum culture, [3H]-hypoxanthine uptake, 3D7. The format is cell-based. As to conditions: Plasmodium falciparum; for pIC50: 3D7, Erythrocyte, read-out: 3D7 IC50; for pEC50: 3D7, Table 2b, read-out: 3D7 EC50. On the procedure: as §1
Experiment [3] concerns P. falciparum D10. Nature of the experiment: Inhibition of in vitro P. falciparum culture, [3H]-hypoxanthine uptake, D10. The format is cell-based. As to conditions: Plasmodium falciparum, D10, Erythrocyte, read-out: D10 IC50. On the procedure: as §1
In experiment [4] the test system is P. falciparum D10-scDHODH. Nature of the experiment: Inhibition of transgenic D10-scDHODH parasites, [3H]-hypoxanthine uptake. Format: cell-based. As to conditions: for pIC50: Plasmodium falciparum, D10, read-out: D10-scDHODH IC50; for efficacy against D10-scDHODH strain compared to D10 parent strain: dose-effect curves, FIG. 5. On the procedure:
as §1
Transgenic parasites expressing scDHODH were generated as described by Painter et al. except that full length scDHODH was cloned directly into the pGem3Z vector without a GFP tag. The resultant plasmid was transfected into ring stages of P. falciparum D10 by electroporation and maintained in culture using standard methods under the selection of WR99210.

Experiment [5] relates to P. falciparum Dd2. The experiment in a line: Inhibition of in vitro P. falciparum culture, [3H]-hypoxanthine uptake, Dd2. The format is cell-based. As to conditions: Plasmodium falciparum; for pIC50: DD2, Erythrocyte, read-out: Dd2 IC50; for pEC50: DD2, Table 2b, read-out: Dd2 EC50. On the procedure:
as §1

Experiment [6] has as its target pfDHODH (Plasmodium falciparum (isolate 3D7), UniProt Q08210). The experiment in a line: DHODH chromogen reduction (DCIP) assay, pfDHODH. To be noted: Table 2b; read-out: pfDHODH IC50. Format: biochemical, P. falciparum. An excerpt: (§2) Type 2 DHODH activity was monitored with either the direct assay measuring the formation of orotate or via a chromogen reduction assay using DCIP. Although the extinction coefficient and absorption wavelength are preferable for the chromogen reduction assay, the inorganic electron acceptor DCIP can be utilized by DHODH as the final electron acceptor in lieu of CoQn when the endogenous substrate is at a low concentration. As such, the direct assay was used to measure the binding affinity of pfDHODH to CoQD and L-DHO. The enzymatic reaction was performed by varying the L-DHO concentration (1-400 μM) or CoQD concentration (1-200 μM) while keeping the other substrate constant and in excess.
(§3) Substrate specificity and enzyme inhibition data was analyzed with GraphPad Prism Version 4 for Windows (GraphPad Software). Kinetic constants were calculated by non-linear regression fitting of the data to the Michaelis-Menten equation [36]. IC50 values were determined by non-linear regression fitting of the data to Equation 1: […]

Experiment [7] concerns the target hsDHODH (Homo sapiens (Human), UniProt Q02127). Nature of the experiment: DCIP assay, hsDHODH. Format: biochemical. As to conditions: Table 2b; read-out: Hu (human DHODH) IC50.
Excerpt: as §2, with “excess. The formation of orotate was measured continuously at 296 nm (ε296=4.3 mM^−1 cm^−1). Inhibition of DHODH by small molecules was evaluated using the chromogen based assay with a final substrate concentration of 200 μM L-DHO, 18 μM CoQD, and 100 μM DCIP, unless otherwise noted. The reduction of DCIP was monitored at 600 nm (ε600=18.8 mM^−1 cm^−1).” for “excess.”
as §3

The mark [8] stands for this setting: [3H]-hypoxanthine uptake by parasite infected erythrocytes.

Sequence of hsDHODH (Q02127 29-395 limits assumed): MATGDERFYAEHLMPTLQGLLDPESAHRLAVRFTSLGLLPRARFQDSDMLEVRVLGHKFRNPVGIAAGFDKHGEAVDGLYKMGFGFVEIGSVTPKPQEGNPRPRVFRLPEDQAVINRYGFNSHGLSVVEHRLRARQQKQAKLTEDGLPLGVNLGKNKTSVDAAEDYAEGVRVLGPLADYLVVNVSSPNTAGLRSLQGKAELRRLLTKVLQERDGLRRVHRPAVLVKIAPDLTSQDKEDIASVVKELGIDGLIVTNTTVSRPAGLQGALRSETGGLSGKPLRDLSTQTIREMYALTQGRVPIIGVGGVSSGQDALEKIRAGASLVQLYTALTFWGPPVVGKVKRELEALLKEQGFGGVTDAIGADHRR
Sequence of pfDHODH (Q08210 159-565 limits assumed): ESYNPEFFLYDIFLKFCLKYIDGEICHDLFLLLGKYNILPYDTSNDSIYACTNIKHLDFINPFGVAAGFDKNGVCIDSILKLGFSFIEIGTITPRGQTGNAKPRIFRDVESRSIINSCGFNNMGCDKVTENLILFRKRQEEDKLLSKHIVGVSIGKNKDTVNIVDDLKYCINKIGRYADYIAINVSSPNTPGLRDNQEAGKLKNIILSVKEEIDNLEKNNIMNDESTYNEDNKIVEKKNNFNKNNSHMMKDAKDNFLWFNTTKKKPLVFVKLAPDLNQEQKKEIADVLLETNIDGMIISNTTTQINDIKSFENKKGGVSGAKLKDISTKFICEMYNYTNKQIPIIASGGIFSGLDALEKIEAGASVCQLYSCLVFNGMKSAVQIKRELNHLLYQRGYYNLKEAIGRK

For `CCc1nc(N)nc(N)c1-c1ccc(Cl)cc1` [Pyrimethamine, reference compound], the pIC50 in experiment [1] (setting [8]) was 6.03; in experiment [2] (setting [8]), 7.44; in experiment [3] (setting [8]), 7.26; in experiment [4], 7.33; in experiment [5] (setting [8]), < 5.00.

Turning to `O=C1C(O)=C([C@H]2CC[C@H](c3ccc(Cl)cc3)CC2)C(=O)c2ccccc21` [Atovaquone, reference compound], the negative logarithm of the IC50 (pIC50) is 9.66 in experiment [1] (setting [8]); 9.74 in experiment [2] (setting [8]); 9.38 in experiment [3] (setting [8]); < 5.70 in experiment [4]; 9.70 in experiment [5] (setting [8]). Also, in experiment [4], the “efficacy against D10-scDHODH strain compared to D10 parent strain” value is “significantly reduced drug efficacy”.

Regarding `CCN(CC)CCCC(C)Nc1ccnc2cc(Cl)ccc12` (stereo not shown) [Chloroquine, reference compound], the pIC50 was 8.10 in experiment [1]; 8.00 in experiment [2]; 7.82 in experiment [3]; 7.89 in experiment [4]; 6.74 in experiment [5]. Besides, the “efficacy against D10-scDHODH strain compared to D10 parent strain” value in experiment [4] is on record as “equally sensitive”.

For `CCCCC(=O)c1ccc(-n2cnc3ccccc32)s1` [Compound 84, 1-[5-(1H-benzimidazol-1-yl)-2-thienyl]pentan-1-one], the pIC50 in experiment [6] and in experiment [7] was < 4.52 in each case. The pEC50 is < 4.40 in experiment [2] and 4.70 in experiment [5].

With `Cc1ccc2c(c1)ncn2-c1ccc(C(=O)NC2CC2)s1` [Compound 60], the values for the pIC50 in experiment [6] and in experiment [7] were 7.42 and 4.61, respectively. In addition, the figures for the pEC50 in experiment [2] and in experiment [5] were 7.70 and 7.68, respectively.

For `CCNC(=O)c1ccc(-n2c(CC)nc3cc(F)ccc32)s1` [Compound 69], the figures for the pIC50 in experiment [6] and in experiment [7] were 6.75 and < 4.52, respectively. Further, the results for the pEC50 in experiment [2] and in experiment [5] were 6.65 and 6.44, respectively.

In the case of `CCCc1nc2ccccc2n1-c1ccc(C(=O)NC2CC2)s1` [Compound 67], the pIC50 in experiment [6] is 6.74; in experiment [7], 4.59. In addition, the pEC50 was 6.41 in experiment [2] and 6.20 in experiment [5].

For `O=C(NC1CC1)c1ccc(-n2cnc3cc(F)ccc32)s1` [Compound 70], the figures for the negative-log IC50 (pIC50) in experiment [6] and in experiment [7] were 7.24 and < 4.52, respectively. Also, the pEC50 in experiment [2] was 7.21; in experiment [5] it was 6.98.

With `Cc1cccc2c1nc(C)n2-c1ccc(C(=O)NC2CC2)s1` [Compound 65], the pIC50 is 7.38 in experiment [6] and < 4.52 in experiment [7]. Also, the pEC50 in experiment [2] was 8.05; in experiment [5] it was 7.89.

Turning to `CCNC(=O)c1ccc(-n2cnc3cc(F)ccc32)s1` [Compound 68], the pIC50 in experiment [6] is 6.98; in experiment [7], < 4.52. Besides, the values for the pEC50 in experiment [2] and in experiment [5] were 7.05 and 6.88, respectively.

Take `CCNC(=O)c1ccc(-n2cc(-c3ccccc3)nc2C)s1` [Compound 75]: the pIC50 in experiment [6] is 6.38; in experiment [7], < 4.52. The pEC50 in experiment [2] was 6.56; in experiment [5], 6.55.

As for `CCCNC(=O)c1ccc(-n2c(C)nc3cc(F)ccc32)s1` [Compound 50], the pIC50 in experiment [6] is 6.30; in experiment [7], < 4.52. Further, the negative logarithm of the EC50 (pEC50) in experiment [2] was 6.59; in experiment [5], 6.27.

On to `CCCc1nc2ccccc2n1-c1ccc(C(=O)NCC)s1` [Compound 59], for which the pIC50 was 6.48 in experiment [6] and 4.71 in experiment [7]. The pEC50 in experiment [2] is 6.42; in experiment [5] it was 6.33.

With `Cc1nc2ccc(OC(F)(F)F)cc2n1-c1ccc(C(=O)NC2CC2)s1` [Compound 58], the figures for the pIC50 in experiment [6] and in experiment [7] were 7.44 and < 4.52, respectively. Moreover, the negative logarithm of the EC50 (pEC50) was 8.05 in experiment [2] and 7.80 in experiment [5].

Turning to `Cc1nc(-c2ccccc2)cn1-c1ccc(C(=O)NC2CC2)s1` [Compound 74], the results for the negative-log IC50 (pIC50) in experiment [6] and in experiment [7] were 6.66 and < 4.52, respectively. In addition, the figures for the pEC50 in experiment [2] and in experiment [5] were 6.91 and 6.69, respectively.

Take `CC(C)NC(=O)c1ccc(-n2cnc3ccccc32)s1` [Compound 36]: the values for the pIC50 in experiment [6] and in experiment [7] were 6.16 and < 4.52, respectively. For the same compound, the values for the pEC50 in experiment [2] and in experiment [5] were 6.24 and 6.09, respectively.

On to `CCNC(=O)c1ccc(-n2c(C)nc3cc(F)ccc32)s1` [Compound 53], for which the pIC50 is 6.79 in experiment [6] and < 4.52 in experiment [7]. In addition, the pEC50 in experiment [2] was 7.18; in experiment [5], 6.97.

Turning to `CCc1nc2cc(F)ccc2n1-c1ccc(C(=O)NC2CC2)s1` [Compound 66], the results for the pIC50 in experiment [6] and in experiment [7] were 7.17 and < 4.52, respectively. Moreover, the pEC50 in experiment [2] is 6.87; in experiment [5] it was 6.60.

With `Cc1nc2cc(C(F)(F)F)ccc2n1-c1ccc(C(=O)NC2CC2)s1` [Compound 64], the results for the pIC50 in experiment [6] and in experiment [7] were 7.39 and 4.55, respectively. The pEC50 was 8.10 in experiment [2] and 7.92 in experiment [5].

In the case of `CCNC(=O)c1ccc(-n2cnc3cc(C)ccc32)s1` [Compound 61], the pIC50 is 7.12 in experiment [6] and 4.67 in experiment [7]. The results for the pEC50 in experiment [2] and in experiment [5] were 7.57 and 7.41, respectively.
